Consider 17 compounds from patent US9718835B2 (China Medical University Hospital, priority 2013, dated 2017).

Common to all, as to type: cell-based, human
One data set concerns SKOV3 (Ovary cancer). Briefly: cells.
Data set [1] has as its system MDA-MB-468 (Breast cancer). Put plainly: cells.
The subject of the next data set is HCT 116 (Colon cancer). Put plainly: cells.
The next data set relates to A549 (Lung cancer). Put plainly: cells.
The test system of data set [2] is KBvin (vincristine-resistant KB subline). Put plainly: Sulforhodamine B cytotoxicity assay, KBvin. Particulars: Table 1; 72 h; average ± SD; read-out: IC50 KBvin. The source says:
(§1) The human tumor cell lines used in this manuscript were A-549 (lung carcinoma), MDA-MB-231 (triple-negative breast cancer), DU-145 (hormone-insensitive prostate cancer), KB (originally isolated from epidermoid carcinoma of the nasopharynx), KBvin (vincristine-resistant KB subline), and HCT116 (colorectal adenocarcinoma). These cell lines were obtained from the Lineberger Comprehensive Cancer Center (UNC-CH) or from ATCC (Manassas, Va.), except KBvin, which was a generous gift of Professor Y.-C. Cheng (Yale University). All cell lines were maintained and assayed in RPMI-1640 medium containing 2 mM L-glutamine and 25 mM HEPES (HyClone), supplemented with 10% heat-inactivated fetal bovine serum (HyClone), 100 μg/mL streptomycin, 100 IU/mL penicillin, and 0.25 μg/mL amphotericin B (Cellgro) in a humidified atmosphere containing 5% CO2 in air. […] The 4-6×10^3 cells/well were cultured for 72 h with various concentrations of test compounds in 96-well plate at 37° C. […] Each assay was performed in triplicate with duplicated samples.
On the technique in general: Sulforhodamine B stains cellular protein and so reports cell mass.

Data set [3] deals with KB (epidermoid carcinoma of the nasopharynx). Put plainly: Sulforhodamine B cytotoxicity assay, KB. Particulars: Table 1; 72 h; average ± SD; read-out: IC50 KB. How it is done: (§2) The 12 novel 1-derivatives 9a-l were evaluated for in vitro antiproliferative activity against four human tumor cell lines, KB (nasopharyngeal), A-549 (lung), DU-145 (prostate), and KBvin (MDR KB subline), by using a sulforhodamine B colorimetric assay with triplicate experiments.^30 Compounds 1 and 3 were used as controls.
(§3) The human tumor cell lines used in this manuscript were A-549 (lung carcinoma), MDA-MB-231 (triple-negative breast cancer), DU-145 (hormone-insensitive prostate cancer), KB (originally isolated from epidermoid carcinoma of the nasopharynx), KBvin (vincristine-resistant KB subline), and HCT116 (colorectal adenocarcinoma). These cell lines were obtained from the Lineberger Comprehensive Cancer Center (UNC-CH) or from ATCC (Manassas, Va.), except KBvin, which was a generous gift of Professor Y.-C. Cheng (Yale University). All cell lines were maintained and assayed in RPMI-1640 medium containing 2 mM L-glutamine and 25 mM HEPES (HyClone), supplemented with 10% heat-inactivated fetal bovine serum (HyClone), 100 μg/mL streptomycin, 100 IU/mL penicillin, and 0.25 μg/mL amphotericin B (Cellgro) in a humidified atmosphere containing 5% CO2 in air. Compound stock solutions were prepared at 10 mM in DMSO and diluted with culture medium with the final DMSO concentration ≦0.01% (v/v), a concentration without effect on cell growth. The 4-6×10^3 cells/well were cultured for 72 h with various concentrations of test compounds in 96-well plate at 37° C. […] Each assay was performed in triplicate with duplicated samples.

The test system of the next data set is A-549 (lung carcinoma). Briefly: Sulforhodamine B cytotoxicity assay, A-549. The note with it: Table 1; 72 h; average ± SD.
Excerpt: as §1

Data set [4] concerns DU-145 (hormone-insensitive prostate cancer). Put plainly: Sulforhodamine B cytotoxicity assay, DU-145. Particulars: Table 1; 72 h; average ± SD. Here is the method: as §2, §3
Where [5] appears, read: Homo sapiens, SK-OV-3, Table 6, read-out: In vitro cytotoxicity SKOV3 (Ovary cancer).
Where [6] appears, read: Homo sapiens, MDA-MB-468, Table 6, read-out: In vitro cytotoxicity MDA-MB-468 (Breast cancer).
Where [7] appears, read: Homo sapiens, HCT-116, Table 6, read-out: In vitro cytotoxicity HCT 116 (Colon cancer).
[8] abbreviates: Homo sapiens, A549, Table 6, read-out: In vitro cytotoxicity A549 (Lung cancer).

Read-outs that look alike come from different tables or passages of the source.

`CC[C@@]1(OC(=O)CNC(Cc2ccc(OC)cc2)=NS(=O)(=O)c2ccc(C)cc2)C(=O)OCc2c1cc1n(c2=O)Cc2cc3c(CN4CCN(C)CC4)c(O)ccc3nc2-1` [#9]: the IC50 in the data set with SKOV3 (Ovary cancer) (setting [5]) turned out to be 1700 ± 279 nM; in data set [1] (setting [6]) it was 871 ± 44.9 nM; in the data set on HCT 116 (Colon cancer) (setting [7]), 458 ± 46.3 nM; with A549 (Lung cancer) (setting [8]) it was 13200 ± 1090 nM.
The matching figures for `CC[C@@]1(OC(=O)CNC(Cc2ccc(OC)cc2)=NS(=O)(=O)c2ccc(C)cc2)C(=O)OCc2c1cc1n(c2=O)C(C)c2cc3ccccc3nc2-1` (some centres unmarked) [#10]: 132 ± 24.2 nM, 1650 ± 90.8 nM, 2090 ± 96.1 nM and 2810 ± 416 nM.
The matching figures for `CC[C@@]1(OC(=O)CNC(Cc2ccc(F)cc2)=NS(=O)(=O)c2ccc(C)cc2)C(=O)OCc2c1cc1n(c2=O)Cc2cc3ccccc3nc2-1` [#11]: 31.1 ± 6.05 nM, 49.7 ± 6.53 nM, 71.9 ± 2.59 nM and 123 ± 9.1 nM.
For the compound `CC[C@@]1(OC(=O)CNC(Cc2ccccc2)=NS(=O)(=O)c2ccc(C)cc2)C(=O)OCc2c1cc1n(c2=O)Cc2cc3ccccc3nc2-1` [Compound 9b], the IC50 in data set [2] was found to be 100 ± 7.3 nM; in data set [3] it was 180 ± 0.8 nM; in the data set on A-549 (lung carcinoma) it was 57 ± 3.9 nM; in data set [4], 130 ± 11 nM.
The matching figures for `CC[C@@]1(OC(=O)C(C)NC(Cc2ccc(OC)cc2)=NS(=O)(=O)c2ccc(C)cc2)C(=O)OCc2c1cc1n(c2=O)Cc2cc3ccccc3nc2-1` (some centres unmarked) [Compound 9c]: 87 ± 8.7 nM, 910 ± 60 nM, 89 ± 8.3 nM and 140 ± 5.9 nM.
Regarding `CC[C@@]1(OC(=O)C(C)NC(Cc2ccccc2)=NS(=O)(=O)c2ccc(C)cc2)C(=O)OCc2c1cc1n(c2=O)Cc2cc3ccccc3nc2-1` (some centres unmarked) [Compound 9d], the IC50 in data set [2] is 96 ± 9.4 nM; in data set [3] it was 220 ± 17 nM; in the data set with A-549 (lung carcinoma), 71 ± 6.9 nM; in data set [4], 150 ± 22 nM.
For `CC[C@@]1(OC(=O)C(NC(Cc2ccc(OC)cc2)=NS(=O)(=O)c2ccc(C)cc2)C(C)C)C(=O)OCc2c1cc1n(c2=O)Cc2cc3ccccc3nc2-1` (some centres unmarked) [Compound 9e], in that order: 1500 ± 110 nM, 11000 ± 480 nM, 1000 ± 110 nM and 1700 ± 140 nM.
The matching figures for `CC[C@@]1(OC(=O)C(NC(Cc2ccccc2)=NS(=O)(=O)c2ccc(C)cc2)C(C)C)C(=O)OCc2c1cc1n(c2=O)Cc2cc3ccccc3nc2-1` (some centres unmarked) [Compound 9f]: 2200 ± 56 nM, 11000 ± 280 nM, 1300 ± 120 nM and 2000 ± 250 nM.
For `CC[C@@]1(OC(=O)C(CC(C)C)NC(Cc2ccc(OC)cc2)=NS(=O)(=O)c2ccc(C)cc2)C(=O)OCc2c1cc1n(c2=O)Cc2cc3ccccc3nc2-1` (some centres unmarked) [Compound 9g], in that order: 1000 ± 130 nM, 2700 ± 8.3 nM, 950 ± 18 nM and 1600 ± 96 nM.
`CC[C@@]1(OC(=O)C(CC(C)C)NC(Cc2ccccc2)=NS(=O)(=O)c2ccc(C)cc2)C(=O)OCc2c1cc1n(c2=O)Cc2cc3ccccc3nc2-1` (some centres unmarked) [Compound 9h]: the IC50 was 1800 ± 30 nM in data set [2], 4400 ± 420 nM in data set [3], 890 ± 39 nM in the data set on A-549 (lung carcinoma) and 1100 ± 16 nM in data set [4].
For `CCC(C)C(NC(Cc1ccc(OC)cc1)=NS(=O)(=O)c1ccc(C)cc1)C(=O)O[C@]1(CC)C(=O)OCc2c1cc1n(c2=O)Cc2cc3ccccc3nc2-1` (some centres unmarked) [Compound 9i], in that order: 1700 ± 160 nM, 9600 ± 42 nM, 1200 ± 66 nM and 8300 ± 140 nM.
The matching figures for `CCC(C)C(NC(Cc1ccccc1)=NS(=O)(=O)c1ccc(C)cc1)C(=O)O[C@]1(CC)C(=O)OCc2c1cc1n(c2=O)Cc2cc3ccccc3nc2-1` (some centres unmarked) [Compound 9j]: 8200 ± 610 nM, 11000 ± 1000 nM, 6500 ± 430 nM and 11000 ± 750 nM.
The matching figures for `CC[C@@]1(OC(=O)C(Cc2ccccc2)NC(Cc2ccc(OC)cc2)=NS(=O)(=O)c2ccc(C)cc2)C(=O)OCc2c1cc1n(c2=O)Cc2cc3ccccc3nc2-1` (some centres unmarked) [Compound 9k]: 120 ± 1.9 nM, 850 ± 24 nM, 120 ± 10 nM and 220 ± 25 nM.
Consider `CC[C@@]1(OC(=O)C(Cc2ccccc2)NC(CCO)=NS(=O)(=O)c2ccc(C)cc2)C(=O)OCc2c1cc1n(c2=O)Cc2cc3ccccc3nc2-1` (some centres unmarked) [Compound 9l], for which the IC50 in data set [2] came to 140 ± 8.1 nM; in data set [3], 310 ± 21 nM; with A-549 (lung carcinoma), 83 ± 10 nM; in data set [4] it was 200 ± 13 nM.
Consider `CCc1c2c(nc3ccc(O)cc13)-c1cc3c(c(=O)n1C2)COC(=O)[C@@]3(CC)OC(=O)CNC(Cc1ccc(OC)cc1)=NS(=O)(=O)c1ccc(C)cc1` [Compound Wcpt-37], for which the IC50 in the data set on SKOV3 (Ovary cancer) (setting [5]) came out at 11.6 ± 4.08 nM; in data set [1] (setting [6]), 7.54 ± 4.07 nM; in the data set with HCT 116 (Colon cancer) (setting [7]), 55.8 ± 2.05 nM; with A549 (Lung cancer) (setting [8]), 121 ± 15.8 nM.
Regarding `CCc1c2c(nc3ccc(OC(=O)N4CCC(N5CCCCC5)CC4)cc13)-c1cc3c(c(=O)n1C2)COC(=O)[C@@]3(CC)OC(=O)CNC(Cc1ccc(OC)cc1)=NS(=O)(=O)c1ccc(C)cc1` [Compound Wcpt-39], the IC50 in the data set with SKOV3 (Ovary cancer) (Homo sapiens, SK-OV-3, read-out: In vitro cytotoxicity SKOV3 (Ovary cancer)) turned out to be 4380 ± 674 nM; in data set [1] (Homo sapiens, MDA-MB-468, read-out: In vitro cytotoxicity MDA-MB-468 (Breast cancer)), 6640 ± 497 nM; in the data set on HCT 116 (Colon cancer) (Homo sapiens, HCT-116, read-out: In vitro cytotoxicity HCT 116 (Colon cancer)), 12500 ± 445 nM; in the data set with A549 (Lung cancer) (Homo sapiens, A549, read-out: In vitro cytotoxicity A549 (Lung cancer)) it was 30700 ± 2120 nM.
Regarding `CCc1c2c(nc3ccccc13)-c1cc3c(c(=O)n1C2)COC(=O)[C@@]3(CC)OC(=O)CNC(Cc1ccc(OC)cc1)=NS(=O)(=O)c1ccc(C)cc1` [Wcpt-03], the IC50 in the data set with SKOV3 (Ovary cancer) (Table 6, read-out: In vitro cytotoxicity SKOV3 (Ovary cancer)) came out at 8.08 ± 1.67 nM; in data set [1] (Table 6, read-out: In vitro cytotoxicity MDA-MB-468 (Breast cancer)) it was 17.7 ± 3.2 nM; in the data set on HCT 116 (Colon cancer) (Table 6, read-out: In vitro cytotoxicity HCT 116 (Colon cancer)) it was 208 ± 4.79 nM; with A549 (Lung cancer) (Table 6, read-out: In vitro cytotoxicity A549 (Lung cancer)) it was 48.3 ± 1.72 nM.
